Measurements: US20240158352A1, “NOVEL ADAMANTYL DERIVATIVE OR PHARMACEUTICALLY ACCEPTABLE SALT THEREOF, AND USE THEREOF” (CAN-Therapy Inc., priority 2021, published 2024)

Experiments:
[1] = test system: LLC, a mouse lung carcinoma cell line; test: WST cell viability assay, LLC; format: cell-based; details: 0.01 to 20 mM, 2 days; for IC50: 48 h, mouse lung carcinoma, WST, read-out: Cell growth inhibition IC50
Procedure: (§1) After treating LLC, a mouse lung carcinoma cell line, and A549, a human lung cancer cell line, with KUgt-102 derivatives, cell viability was measured by water soluble tetrazolium (WST) cell viability assay.
(§2) The lung cancer cell lines LLC and A549 were attached to a 96-well plate at 5×10e^3 and 1×10e^4 cells/wells, respectively. The next day, the culture medium was removed, and they were added with new medium treated with the KUgt-102 derivative and evogliptin and saxagliptin, respectively, which have a structure similar to that of the derivative of the present disclosure known as a DPP4 inhibitor, as a positive control, in a concentration-dependent manner from 0.01 to 20 mM. Cells treated with the derivative and control group were cultured at 37° C. in 5% CO2. After 2 days, the cultured cells were treated with WST reagent (EZ-CYTOX, Dogen, Republic of Korea) at a final volume of 1:10 to analyze cell viability. Thereafter, the cultured plate was stored in an incubator at 37° C.
(§3) After culturing for 1 hour, the color change was measured at 450 nm using a microplate reader (SpectraMAX190, molecular Devices, CA, USA), and the measurement results are shown in FIGS. 2 and 3.

[2] = test system: A549, a human lung cancer cell line; test: WST cell viability assay, A549; format: cell-based; details: for IC50: 48 h, A549, human lung cancer, WST, read-out: Cell growth inhibition IC50
Procedure: as §1, §2, §3

DPP4 (human recombinant) = target: T1, DPP4 (human recombinant) (Homo sapiens, UniProt P27487); test: DPP4 screening assay (Abcam 133081 kit, Gly-Pro-AMC fluorescent substrate); format: biochemical; details: FIG. 1; for DPP4 inhibitory activity: treated at 1 μM, 100 nM, 10 nM, 1 nM and 100 pM, 37° C., 30 minutes
T1 construct: purchased Abcam (Boston, USA) 133081
T1 sequence (P27487 whole entry): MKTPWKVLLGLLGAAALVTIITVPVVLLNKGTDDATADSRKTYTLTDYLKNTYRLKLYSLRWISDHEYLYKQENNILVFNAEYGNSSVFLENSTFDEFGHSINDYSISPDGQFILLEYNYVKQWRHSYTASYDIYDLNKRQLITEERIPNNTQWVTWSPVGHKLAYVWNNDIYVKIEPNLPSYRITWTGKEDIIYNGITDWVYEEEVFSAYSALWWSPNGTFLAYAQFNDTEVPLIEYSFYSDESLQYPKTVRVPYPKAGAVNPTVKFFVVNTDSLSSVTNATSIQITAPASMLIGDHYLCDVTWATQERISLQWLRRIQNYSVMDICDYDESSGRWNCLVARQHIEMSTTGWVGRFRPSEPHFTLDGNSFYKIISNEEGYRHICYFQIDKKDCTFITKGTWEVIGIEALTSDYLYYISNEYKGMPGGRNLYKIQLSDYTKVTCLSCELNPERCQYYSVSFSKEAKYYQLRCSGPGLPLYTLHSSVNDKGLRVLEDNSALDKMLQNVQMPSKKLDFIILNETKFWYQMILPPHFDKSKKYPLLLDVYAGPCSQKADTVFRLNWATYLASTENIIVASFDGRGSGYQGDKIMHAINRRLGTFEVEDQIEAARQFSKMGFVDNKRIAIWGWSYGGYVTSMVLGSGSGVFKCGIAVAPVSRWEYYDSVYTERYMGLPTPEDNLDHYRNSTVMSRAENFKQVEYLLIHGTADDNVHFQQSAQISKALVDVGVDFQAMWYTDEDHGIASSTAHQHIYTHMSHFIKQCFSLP
Procedure: DPP4 screening assay was performed to identify the DPP4 inhibitory activity of the adamantyl derivatives KUgt-102 and KUgt-103 of the present disclosure. Abcam (Boston, USA) 133081 was used as an assay kit, and Gly-Pro-Aminomethylcoumarin was used as a fluorescent substrate. That is, the fluorescence emitted from aminomethylcoumarin (AMC), which was freed by cleaving the peptide bond by DPP, was analyzed at an excitation wavelength of 350 to 360 nm and an emission wavelength of 450 to 465 nm to measure the DPP4 inhibitory activity.
More specifically, DPP Assay Buffer (10×) was dissolved in HPLC-grade pure water, thereby preparing 1× solution. 120 μl of DPP4 (human recombinant) contained in each glass vial was mixed with 480 μl of 1× assay buffer. 120 μl of Gly-Pro-AMC, in which 5 mM H-Gly-Pro was conjugated to AMC, was dissolved in 2.88 ml assay buffer to produce DPP substrate. As a positive control, vildagliptin and saxagliptin, which have a similar structure to the derivative of the present disclosure, known as DPP4 inhibitor, were dissolved in 500 μl of assay buffer to make 1 mM, and the result was used in the reaction. As an experimental group, 10 μl each of adamantyl derivatives KUgt-102 and KUgt-103 was used in the reaction. […] The reaction was repeated three times.
After the reaction, fluorescence was measured at an excitation wavelength of 350-360 nm and an emission wavelength of 450-465 nm using a fluorescence microplate reader (SPECTRA MAX Gemini EM, USA). Thereafter, the inhibitory activity was calculated as follows.

Row | Compound | IC50 [1] | IC50 ([2]; 0.01 to 20 mM, 2 days) | DPP4 inhibitory activity compared with positive controls vildagliptin and saxagliptin (DPP4 (human recombinant)) | DPP4 inhibitory activity (DPP4 (human recombinant)) | cell viability ([1]; FIG. 2) | cell viability ([2]; A549, 0.01 to 20 mM, 2 days, FIG. 3) | anticancer activity relative to evogliptin and saxagliptin, based on the same amount ([2]; human lung cancer cell lines) | amount needed for effective killing effect compared to evogliptin and saxagliptin ([2]; human lung cancer cell lines, relative to evogliptin and saxagliptin)
1 | CC(C)(C)OC[C@@H]1C(=O)NCCN1C(=O)C[C@H](N)Cc1cc(F)c(F)cc1F [Evogliptin, evogliptin, reference compound] | 660 ± 10 µM | 750 ± 10 µM |  |  |  |  |  | 
2 | N#C[C@@H]1CCCCN1C(=O)[C@@H](N)C12CC3CC(CC(O)(C3)C1)C2 [KUgt-102, (S)-1-((S)-2-amino-2-((1r,3R,5R,7S)-3-hydroxyadamantan-1-yl)acetyl)piperidine-2-carbonitrile] | 330 ± 10 µM | 240 ± 10 µM | higher inhibitory activity than vildagliptin and saxacliptin | excellent DPP4 inhibitory activity | inhibited cell viability in a concentration-dependent manner | inhibited cell viability in a concentration-dependent manner | about three times better anticancer activity | ≤ 30%
3 | N[C@H](C(=O)N(CCO)CCO)C12CC3CC(CC(O)(C3)C1)C2 [KUgt-103, (S)-2-amino-2-((1r,3R,5R,7S)-3-hydroxyadamantan-1-yl)-N,N-bis(2-hydroxyethyl)acetamide] |  |  |  | excellent DPP4 inhibitory activity |  |  |  | 
4 | N#C[C@@H]1C[C@@H]2C[C@@H]2N1C(=O)[C@@H](N)C12CC3CC(CC(O)(C3)C1)C2 [Saxagliptin, saxagliptin, reference compound] | 950 ± 10 µM | 900 ± 10 µM |  |  |  |  |  | 
